According to patent US20130122098A1, “Method and composition to improve absorption of therapeutic agents” (Bayer HealthCare LLC, priority 2011, published 2013):

How the values were obtained:
[1] = Particle size of milled aspirin by laser diffraction (MS 2000 Hydro S); format: physicochemical
Experimental: Several techniques were evaluated to determine the preferred type of milling techniques for use with aspirin in accordance with the invention. All sizes were determined using Laser Diffraction on a model MS 2000 Hydro S machine. The “d50” value is the average particle size of the milled sample, and “d90” represents the average particle size of at least 90% of the particles in the milled sample. Airjet, bead, and ball mill techniques were selected as being the most preferred in the invention because of the reliability of the techniques and the particle sizes obtained. Bead milling is less preferred because of its higher relative cost. The precipitation method and crystal synthesis also yielded small particle sizes but particles prepared using these techniques tended to agglomerate.

[2] = Compatibility: degradation products of aspirin/carbonate blends by HPLC; format: physicochemical
Experimental: The degradation products of various combinations of aspirin and various carbonates were determined for different combinations of aspirin and different grades and sources of carbonates to evaluate the compatibility and stability. Milling for about fifteen minutes appeared to slightly induce the production of free salicylic acid (FSA), but not to a significant extent. […] The results are shown in Table 3 (all blend percentages are weight percentages obtained using High Performance Liquid Chromatography (HPLC))

[3] = Air Jet Mill using helium as gas jet

| Particle size of the milled aspirin, d90 ([1]; Air Jet Mill) | Particle size of the milled aspirin, d50 [1, 3] | Particle size of the milled aspirin, d90 [1, 3] | Particle size of the milled aspirin, d50 ([1]; Crystal Synthesis, no agglomeration) | Particle size of the milled aspirin, d50 ([1]; High energy Ball Mill) | Particle size of the milled aspirin, d50 ([1]; Planetary Ball Mill) | Particle size of the milled aspirin, d50 ([1]; Precipitation Method (Solution: Ethanol + 20% ASA with 10% PVP)) | Acetyl Salicylic Salicylic Acid ASSA (%) [2] | FSA (%) (free salicylic acid) [2] | Compound | Particle size of the milled aspirin, d50 ([1]; Crystal Synthesis, with agglomeration of milled particles) |
| --- | --- | --- | --- | --- | --- | --- | --- | --- | --- | --- |
| < 10 μm | < 2.6 μm | < 6.6 μm | d50~30 μm and no agglomeration | d50~30-40 μm | d50~40 μm | d50~5 μm |  |  | CC(=O)Oc1ccccc1C(=O)O [aspirin] | d50~5 to 10 μm, with agglomeration of milled particles |
|  |  |  |  |  |  |  | 0.00% | 0.00% | CC(=O)Oc1ccccc1C(=O)O [100% Aspirin-Milled 15 min] |  |
